Test results taken from patent US11660293B2, “Substituted 2-azabicyclo[3.1.1]heptane and 2-azabicyclo[3.2.1]octane derivatives as orexin receptor antagonists” (Chronos Therapeutics Limited, priority 2017, dated 2023).

Columns and labels:
[1] = biological target: human Orexin type 1 receptors (Homo sapiens (Human), UniProt O43613); test: Scintillation Proximity Assay (SPA) binding assay, [3H]SB-674042 displacement, CHO-hOX1 membranes
Description: Scintillation Proximity Assay (SPA) Binding Assays CHO cells stably transfected with human Orexin type 1 receptors (CHO-hOX1) or HEK-293 cells transiently transfected with human Orexin type 2 receptors (HEK-hOX2) were collected after 16 h induction with 5 mM sodium butyrate. […] The binding was performed in a final volume of 200 μl. 100 μl of hOX1 or hOX2 beads-membranes suspension were added to 100 μl of [^3H]SB-674042 or [^3H]EMPA solutions (radioligand concentration 2 nM final in the assay), into the 96-well Isoplates containing the 2 μl/well of compounds to be tested. Nonspecific binding was measured in the presence of 1 μM Almorexant. Assay plates were then incubated at room temperature for 3 h before being counted in a Microbeta scintillation counter (PerkinElmer). Data were analysed by non-linear regression analysis using XLfit Software.

[2] = biological target: human Orexin type 2 receptors (Homo sapiens (Human), UniProt O43614); test: Scintillation Proximity Assay (SPA) binding assay, [3H]EMPA displacement, HEK-hOX2 membranes
Chain of human Orexin type 2 receptors (O43614 whole entry): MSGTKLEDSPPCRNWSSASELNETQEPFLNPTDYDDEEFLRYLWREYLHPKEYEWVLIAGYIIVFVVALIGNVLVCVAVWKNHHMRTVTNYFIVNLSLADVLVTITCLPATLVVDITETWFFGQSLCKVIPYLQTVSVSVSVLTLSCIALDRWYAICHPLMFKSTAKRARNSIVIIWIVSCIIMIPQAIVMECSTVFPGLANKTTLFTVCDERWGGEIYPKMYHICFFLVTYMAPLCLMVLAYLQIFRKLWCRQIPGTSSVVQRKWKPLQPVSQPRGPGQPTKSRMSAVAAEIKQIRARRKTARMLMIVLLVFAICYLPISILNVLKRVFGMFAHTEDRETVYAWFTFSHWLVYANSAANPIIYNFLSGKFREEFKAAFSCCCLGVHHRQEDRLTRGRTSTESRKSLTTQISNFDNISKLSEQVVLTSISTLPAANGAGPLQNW
Description: Scintillation Proximity Assay (SPA) Binding Assays
CHO cells stably transfected with human Orexin type 1 receptors (CHO-hOX1) or HEK-293 cells transiently transfected with human Orexin type 2 receptors (HEK-hOX2) were collected after 16 h induction with 5 mM sodium butyrate. The cell pellets were re-suspended, homogenized in 15 mM Tris/HCl pH=7.5, 1 mM EGTA, 0.3 mM EDTA, 2 mM MgCl2, protease inhibitors and centrifuged at 40,000 g (20 min, 4° C.). After re-suspension, homogenization and centrifugation as above, the final pellets were re-suspended in 75 mM Tris/HCl pH=7.5, 1 mM EGTA, 0.3 mM EDTA, 12.5 mM MgCl2, 250 mM Sucrose, protease inhibitors, divided into aliquots and frozen down at −80° C.
CHO-hOX1 cell membranes (6 μg ml^−1) or HEK-hOX2 membranes (8 μg ml^−1) were pre-coupled with 1.0 mg ml^−1 of Wheatgerm Agglutinin-coated Yttrium Silicate (YSi-WGA) SPA beads (Perkin Elmer) in buffer containing 25 mM HEPES pH=7.4, 1 mM CaCl2), 5 mM MgCl2, 0.01% (w/v) BSA, 0.02% (w/v) Pluronic F-127 by shaking at room temperature for 2.5-3 h.
The binding was performed in a final volume of 200 μl. 100 μl of hOX1 or hOX2 beads-membranes suspension were added to 100 μl of [^3H]SB-674042 or [^3H]EMPA solutions (radioligand concentration 2 nM final in the assay), into the 96-well Isoplates containing the 2 μl/well of compounds to be tested. Nonspecific binding was measured in the presence of 1 μM Almorexant. Assay plates were then incubated at room temperature for 3 h before being counted in a Microbeta scintillation counter (PerkinElmer).
Data were analysed by non-linear regression analysis using XLfit Software.

Chain of human Orexin type 1 receptors (O43613 whole entry): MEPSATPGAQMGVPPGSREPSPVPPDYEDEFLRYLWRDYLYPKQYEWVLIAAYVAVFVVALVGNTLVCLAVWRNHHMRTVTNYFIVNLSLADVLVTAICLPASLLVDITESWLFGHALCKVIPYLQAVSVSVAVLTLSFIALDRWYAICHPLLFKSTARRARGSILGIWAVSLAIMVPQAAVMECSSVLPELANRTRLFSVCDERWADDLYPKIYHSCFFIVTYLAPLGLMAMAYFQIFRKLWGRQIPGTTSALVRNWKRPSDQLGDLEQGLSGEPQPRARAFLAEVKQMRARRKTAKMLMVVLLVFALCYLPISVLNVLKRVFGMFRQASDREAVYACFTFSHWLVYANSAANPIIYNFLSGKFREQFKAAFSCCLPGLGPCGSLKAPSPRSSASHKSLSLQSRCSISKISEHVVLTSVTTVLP

Structure (SMILES)	OX1 pKi (SPA binding) ([1]; Table 1, [3H]SB-674042 2 nM)	OX2 pKi (SPA binding) ([2]; Table 1, [3H]EMPA 2 nM)	OX1 pKi (SPA binding) ([1]; Table 2, [3H]SB-674042 2 nM)	OX2 pKi (SPA binding) ([2]; Table 2, [3H]EMPA 2 nM)	further results
Cc1ccc(-c2nccs2)c(C(=O)N2C3CC(C3)[C@@H](C)C2COc2ccc(F)cc2)c1 (mixture of isomers) [Example 98, cis-3-[(4-fluorophenoxy)methyl]-4-methyl-2-[5-methyl-2-(1,3-thiazol-2-yl)benzoyl]-2-azabicyclo[3.1.1]heptane]	7.86	6.75	–	–	–
C[C@@H]1C2CC(C2)N(C(=O)c2cc(Cl)ccc2-n2nccn2)C1CNc1nc2cccnc2s1 (single isomer, unassigned) [Example 236, N-{[(3R,4S) or (3S,4R)-2-[5-chloro-2-(2H-1,2,3-triazol-2-yl)benzoyl]-4-methyl-2-azabicyclo[3.1.1]heptan-3-yl]methyl}-[1,3]thiazolo[5,4-b]pyridin-2-amine]	–	–	8.99	5.7	–
C[C@@H]1C2CC(C2)N(C(=O)c2cc(F)ccc2-n2nccn2)C1CNc1nc2ccc(F)cc2s1 (mixture of isomers) [Example 168, cis-6-fluoro-N-({2-[5-fluoro-2-(2H-1,2,3-triazol-2-yl)benzoyl]-4-methyl-2-azabicyclo[3.1.1]heptan-3-yl}methyl)-1,3-benzothiazol-2-amine]	–	–	8.46	5.88	–
Cc1ccc(-n2nccn2)c(C(=O)N2C3CC(C3)[C@H](C)C2COc2nc3ccc(F)cc3s2)n1 (stereo partly drawn) [Example 110, trans-6-fluoro-2-({4-methyl-2-[6-methyl-3-(2H-1,2,3-triazol-2-yl)pyridine-2-carbonyl]-2-azabicyclo[3.1.1]heptan-3-yl}methoxy)-1,3-benzothiazole]	7	6.06	–	–	–
C[C@@H]1C2CC(C2)N(C(=O)c2cc(C#N)ccc2-n2nccn2)C1COc1ccc(F)cc1 (mixture of isomers) [Example 142, cis-3-{3-[(4-fluorophenoxy)methyl]-4-methyl-2-azabicyclo[3.1.1]heptane-2-carbonyl}-4-(2H-1,2,3-triazol-2-yl)benzonitrile]	–	–	7	6.33	–
Cc1ccc(-n2nccn2)c(C(=O)N2C3CC(C3)[C@@H](C)C2CNc2cnc3cc(F)c(F)cc3n2)n1 (mixture of isomers) [Example 201, cis-6.7-difluoro-N-({4-methyl-2-[6-methyl-3-(2H-1,2,3-triazol-2-yl)pyridine-2-carbonyl]-2-azabicyclo[3.1.1]heptan-3-yl}methyl)quinoxalin-2-amine]	–	–	7.97	6.55	–
C[C@H]1C2CC(C2)N(C(=O)c2cc(F)ccc2-n2nccn2)C1COc1ccc(F)cc1 (mixture of isomers) [Example 128, trans-2-[5-fluoro-2-(2H-1,2,3-triazol-2-yl)benzoyl]-3-{(4-fluorophenoxy)methyl]-4-methyl-2-azabicyclo[3.1.1]heptane]	–	–	6.85	5.61	–
Cc1ccc(-c2ncccn2)c(C(=O)N2C3CC(C3)[C@H](C)[C@@H]2COc2ccc(F)cc2)n1 (single isomer, unassigned) [Example 91, (3S,4R or 3R,4S)-3-(4-fluorophenoxymethyl)-4-methyl-2-[6-methyl-3-(pyrimidin-2-yl)pyridine-2-carbonyl]-2-azabicyclo[3.1.1]heptane]	–	–	–	–	Ki ([1]; Table 1, [3H]SB-674042 2 nM, read-out: OX1 pKi (SPA binding) (converted)): 3.47 nM; Ki ([2]; Table 1, [3H]EMPA 2 nM, read-out: OX2 pKi (SPA binding) (converted)): 35.5 nM
Cc1ccc(-c2ncccn2)c(C(=O)N2C3CC(C3)[C@@H](C)C2CNc2cnc(C(F)(F)F)cn2)n1 (single isomer, unassigned) [Example 250, N-{[(3R,4S) or (3S,4R)-4-methyl-2-[6-methyl-3-(pyrimidin-2-yl)pyridine-2-carbonyl]-2-azabicyclo[3.1.1]heptan-3-yl]methyl}-5-(trifluoromethyl)pyrazin-2-amine]	–	–	7.9	4.85	–
Cc1nc(C(=O)N2C3CC(C3)[C@H](C)C2COc2ccc(F)cc2)c(-c2ccccn2)s1 (single isomer, unassigned) [Example 124, (3S,4S) or (3R,4R)-3-[(4-fluorophenoxy)methyl]-4-methyl-2-[2-methyl-5-(pyridin-2-yl)-1,3-thiazole-4-carbonyl]-2-azabicyclo[3.1.1]heptane]	–	–	8.43	6.3	–
Cc1ccc(-n2nccn2)c(C(=O)N2C3CC(C3)[C@@H](C)C2CNc2ccc3ccccc3n2)n1 (mixture of isomers) [Example 161, cis-N-({4-methyl-2-[6-methyl-3-(2H-1,2,3-triazol-2-yl)pyridine-2-carbonyl]-2-azabicyclo[3.1.1]heptan-3-yl}methyl)quinolin-2-amine]	–	–	7.32	5.2	–
C[C@@H]1C2CC(C2)N(C(=O)c2cc(F)ccc2-n2nccn2)C1CNc1nc2cccnc2s1 (mixture of isomers) [Example 228, cis-N-({2-[5-fluoro-2-(2H-1,2,3-triazol-2-yl)benzoyl]-4-methyl-2-azabicyclo[3.1.1]heptan-3-yl}methyl)-[1,3]thiazolo[5,4-b]pyridin-2-amine]	–	–	7.94	5.04	–
Cc1nc(C(=O)N2C(COc3ccc4ccccc4n3)CC3CC2C3)c(-c2ccccc2)s1 (stereo not shown) [Example 56]	7.98	7.12	–	–	–
C[C@@H]1C2CC(C2)N(C(=O)c2cc(Cl)ccc2-n2nccn2)C1CNc1cnc2cc(F)ccc2n1 (single isomer, unassigned) [Example 209, N-{[(3R,4R) or (3S,4R)-2-[5-chloro-2-(2H-1,2,3-triazol-2-yl)benzoyl]-4-methyl-2-azabicyclo[3.1.1]heptan-3-yl]methyl}-6-fluoroquinoxalin-2-amine]	–	–	8.74	6.8	–
Cc1nc(C(=O)N2C(COc3cc4ccccc4cn3)CC3CC2C3)c(-c2ccccc2)s1 (stereo not shown) [Example 38]	7.61	6.9	–	–	–
CCOc1ccc(C)nc1C(=O)N1C2CC(C2)[C@@H](C)C1CNc1nc2ccc(F)cc2s1 (mixture of isomers) [Example 174, cis-N-{[2-(3-ethoxy-6-methylpyridine-2-carbonyl)-4-methyl-2-azabicyclo[3.1.1]heptan-3-yl]methyl}-6-fluoro-1,3-benzothiazol-2-amine]	–	–	8.82	7.06	–
C[C@@H]1C2CC(C2)N(C(=O)c2cc(Cl)ccc2-n2nccn2)C1CNc1ncc(C2CC2)cn1 (stereo partly shown) [Example 259]	–	–	7.66	5.32	–
COc1nc(C(=O)N2C(COc3ccc(F)cc3)CC3CC2C3)c(-c2ccccc2)s1 (stereo not shown) [Example 52]	7.71	6.79	–	–	–
C[C@@H]1C2CC(C2)N(C(=O)c2cc(F)ccc2-n2nccn2)C1CNc1nc2ccc(F)cc2s1 (single isomer, unassigned) [Example 170, 6-fluoro-N-({(3R,4S) or (3S,4R)2-[5-fluoro-2-(2H-1,2,3-triazol-2-yl)benzoyl]-4-methyl-2-azabicyclo[3.1.1]heptan-3-yl}methyl)-1,3-benzothiazol-2-amine]	–	–	8.86	5.99	–
Cc1nc(C(=O)N2C(COc3ccc(F)cc3)CC3CC2C3)c(-c2ccc(F)cc2)s1 (stereo not shown) [Example 50]	7.66	6.52	–	–	–
Cc1ccc(-n2nccn2)c(C(=O)N2C3CC(C3)[C@@H](C)C2CNc2cnc(C(F)(F)F)cn2)c1 (stereo partly shown) [Example 254]	–	–	8.37	5.12	–
Cc1ccc(-c2nccs2)c(C(=O)N2C3CC(C3)[C@@H](C)C2COc2ccc(F)cc2)n1 (mixture of isomers) [Example 96, cis-3-[(4-fluorophenoxy)methyl]-4-methyl-2-[6-methyl-3-(1,3-thiazol-2-yl)pyridine-2-carbonyl]-2-azabicyclo[3.1.1]heptane]	8.18	6.88	–	–	–
Cc1nc(C(=O)N2C(COc3ncc4ccn(C)c4n3)CC3CC2C3)c(-c2ccccc2)s1 (stereo not shown) [Example 57]	7.35	6.86	–	–	–
